Results published in patent US20260198495A1, “BINARY INSECTICIDE COMPOSITION AND USE THEREOF” (SHENYANG SINOCHEM AGROCHEMICALS R & D CO., LTD., priority 2022, published 2026).

Columns and labels:
Type in all cases: in vivo
[1] = test system: 3rd-instar larvae of Plutella xylostella; assay: Joint toxicity of I-72 + metaflumizone, airbrush spraying, Example 4, Table 4; conditions: airbrush spraying of cabbage leaf disks, 72 h, A = compound I-72, B = metaflumizone
Description: Test target: 3rd-instar larvae of Plutella xylostella, a sensitive strain reared indoors.
Test conditions: temperature: 25-27° C., humidity: RH 60%, and illumination: L:D=14:10
Experimental method: the airbrush spraying method was adopted. The cabbage cultivated in the greenhouse was taken and made into leaf disks with a diameter of 3 cm. After uniform spraying treatment with an airbrush manual sprayer, the leaf disks were placed in a 9-cm Petri dish lined with filter paper. After natural air-drying in the shade, the standard test insects were introduced, and the number of dead and live insects was investigated 72 h later.
The preparation of the pesticide solution and the evaluation method (Sun Y-P) for the joint action type of the mixture were the same as those in Example 1.

[2] = test system: 3rd-instar larvae of Pyrausta nubilalis Hubern; assay: Joint toxicity of I-72 + metaflumizone, artificial diet-pesticide film, Example 2, Table 2; conditions: 72 h, A = compound I-72, B = metaflumizone
Description: (§1) Test subject: 3rd-instar larvae of Pyrausta nubilalis Hubern, a sensitive strain reared indoors.
(§2) Experimental method: the artificial diet-pesticide film method was adopted. A standard clean 24-well culture plate was selected. 1 ml of artificial diet was added to each well. After the diet cooled and solidified, a quantitative amount of a pesticide solution was added to the culture plate using a continuous sampler, and then it was air-dried naturally in the shade. The standard test insects were introduced, with 1 insect in each well, a total of 48 insects. The treated test insects were placed in an observation room under certain conditions. The reaction of the test insects was regularly observed, and the number of dead and live insects was investigated 72 h later.
(§3) The test conditions, the preparation method of the pesticide solution, and the evaluation method (Sun Y-P) for the joint action type of the mixture were the same as those in Example 1.

[3] = test system: Bemisia tabaci (Gennadius) nymphs; assay: Joint toxicity of I-72 + organophosphorus insecticides, cotton leaf-disk spraying, Example 18, Table 18; conditions: 96 h
Description: Test target: Bemisia tabaci (Gennadius) nymphs.
(§4) Preparation of the pesticide solution: according to different test requirements, the test samples were accurately weighed respectively with an electronic analytical balance. The technical pesticides were dissolved in acetone, and then diluted with 0.1% Tween 80 water into a series of pesticide solutions with a certain concentration gradient according to the experimental design dosage.
Experimental method: first, cotton leaves with neat and consistent Bemisia tabaci (Gennadius) nymphs were selected and made into leaf disks, with about 20 insects on each leaf disk. Then, they were evenly sprayed with the pesticide solution in the order from low dosage to high dosage according to the experimental design, with 1.5 mL for each leaf and 3 replicates for each treatment. In addition, a blank control was set up.
(§5) The treated test materials were placed in an observation room, and the temperature, humidity and illumination of the observation room could be adjusted as needed. The number of dead and live insects was investigated 96 hours later. The corrected mortality rate was calculated using the Abbott's formula, and statistical analysis was performed with the DPS data processing software to obtain the toxicity regression equation, LC50 value and 95% confidence limit of each single test pesticide and each mixture of different ratios. Then, the co-toxicity coefficient of each ratio was calculated using the Sun Y-P method to evaluate the mixing effect (the same as in Example 1).

[4] = test system: 3rd-instar larvae of Chilo suppressalis (Walker); assay: Joint toxicity of I-72 + organophosphorus insecticides, rice seedling dipping, Example 15, Table 15; conditions: 48 h
Description: Test target: 3rd-instar larvae of Chilo suppressalis (Walker), a sensitive strain reared indoors.
as §4
(§6) Experimental method: first, tender and fresh rice seedlings were selected and dipped in the prepared pesticide solution for 10 s in the order from low dosage to high dosage according to the experimental design. After natural air-drying in the shade, they were cut into small sections of 5 cm, placed in a 9-cm-diameter Petri dish with filter paper, and uniform and healthy test insects were introduced, with 10 insects for each treatment and 3 replicates for each treatment. In addition, a blank control was set up.
as §5, with “48” for “96”

[5] = test system: 3rd-instar larvae of Ostrinia furnacalis Guenee; assay: Joint toxicity of I-72 + organophosphorus insecticides, corn stalk dipping, Example 21, Table 21; conditions: 48 h
Description: Test target: 3rd-instar larvae of Ostrinia furnacalis Guenee, a sensitive strain reared indoors.
as §4
as §6, with “first, fresh” for “first,”, “corn stalks cultivated in the greenhouse” for “and fresh rice seedlings”, “selected, cut into small sections of 3 cm,” for “selected”, “were” for “were cut into small sections of 5 cm,”
as §5, with “48” for “96”

adult Phyllotreta spp. = assay: Joint toxicity of I-72 + organophosphorus insecticides, cabbage seedling spraying, Example 19, Table 19; conditions: 72 h
Description: Test target: adult Phyllotreta spp., a sensitive strain reared indoors.
as §4
Experimental method: first, fresh cabbage seedlings cultivated in the greenhouse were selected and evenly sprayed with the pesticide solution in the order from low dosage to high dosage according to the experimental design. After natural air-drying in the shade, they were covered with a glass cover, and uniform and healthy test insects were introduced, with 10 insects for each treatment and 3 replicates for each treatment. In addition, a blank control was set up.
as §5, with “72” for “96”

[6] = test system: 3rd-instar larvae of Spodoptera frugiperda; assay: Joint toxicity of I-72 + indoxacarb, corn leaf dipping, Example 3, Table 3; conditions: 72 h, A = compound I-72, B = indoxacarb
Text: (§7) Test subject: 3rd-instar larvae of Spodoptera frugiperda, a sensitive strain reared indoors.
(§8) Experimental method: the dipping method was adopted. The corn leaves cultivated in the greenhouse were taken, cut into leaf segments of 5 cm long, dipped in the prepared pesticide solution for 10 s, and then cut into small pieces of 1.5 cm×1.5 cm after natural air-drying in the shade. These pieces were placed in a 24-well culture plate, and the standard test insects were introduced, with 48 insects for each treatment. The treated test insects were placed in an observation room under certain conditions. The reaction of the test insects was regularly observed, and the number of dead and live insects was investigated 72 h later.
as §3

[7] = test system: 3rd-instar larvae of Spodoptera exigua Hübner; assay: Joint toxicity (LC50, CTC) of I-72 + indoxacarb, leaf-disk dipping, Example 1, Table 1; conditions: cabbage leaf-disk dipping, 72 h, A = compound I-72, B = indoxacarb
Description: (§9) Test subject: 3rd-instar larvae of Spodoptera exigua Hübner, a sensitive strain reared indoors.
Test conditions: temperature: 24-26° C., humidity: RH 60%, and illumination: L:D=14:10.
(§10) Preparation method: the test pesticides were accurately weighed respectively with an electronic analytical balance. After the two technical materials were respectively added into an appropriate amount of solvent and completely dissolved, the stock solution of the required concentration was prepared with water containing 0.1% Tween 80. The stock solutions of the two active ingredients were mixed in a certain ratio to prepare a mixed solution, which was then diluted respectively into a series of pesticide solutions with a certain concentration gradient according to the experimental design dosage.
Experimental method: the dipping method was adopted. […]
The co-toxicity coefficient (CTC value) of the mixture was calculated according to the following formula:
[formula] • in the formula: ATI-measured toxicity index of the mixture; S-LC50 of the standard pesticide; and M-LC50 of the mixture. […]
[formula] • in the formula: CTC-co-toxicity coefficient; ATI-measured toxicity index of the mixture; and TTI-theoretical toxicity index of the mixture. • CTC-co-toxicity coefficient • ATI-measured toxicity index of the mixture • TTI-theoretical toxicity index of the mixture

[8] = test system: 3rd-instar larvae of Spodoptera exigua Hübner; assay: Joint toxicity of I-72 + emamectin benzoate, leaf-disk dipping, Example 9, Table 9; conditions: cabbage leaf-disk dipping, 72 h, A = compound I-72, B = emamectin benzoate
Text: as §9
Experimental method: the dipping method was adopted. The cabbage leaves cultivated in the greenhouse were taken, the surface wax layer was removed, and leaf disks with a diameter of 3 cm were made with a puncher. The leaf disks were dipped in the prepared pesticide solution for 10 s, and then put into a 9-cm-diameter Petri dish lined with filter paper. After natural air-drying in the shade, the standard test insects were introduced, with 10 insects placed in each dish and 3 replicates performed. The treated test insects were placed in an observation room under certain conditions. The reaction of the test insects was regularly observed, and the number of dead and live insects was investigated 72 h later.
(§11) The test conditions, the preparation of the pesticide solution and the evaluation method were the same as those in Example 1.

[9] = test system: 3rd-instar larvae of Pyrausta nubilalis Hubern; assay: Synergism assay (Bliss) of I-72 + abamectin, spinosad, spinetoram, emamectin benzoate, Example 6, Table 6; conditions: 72 h
Description: as §1
Test conditions: temperature: 24-26° C., humidity: RH 60%, and illumination: L:D=14:10
as §10, §2
The evaluation method adopted was the Bliss method. This method is applicable to the qualitative screening of insecticidal compositions. According to the concept of independent joint action he proposed, Bliss believes that the theoretical mortality rate P when insecticides are used in combination can be calculated by the following formula: […]
Pm is the mortality rate (%) of the target when the first active ingredient is at a concentration of m; and Pn is the mortality rate (%) of the target when the second active ingredient is at a concentration of n.
If the actual mortality rate of the target after the two active ingredients are mixed at a certain concentration is greater than theoretical mortality rate P, it is determined that the two active ingredients have a synergistic effect when used in combination at the set concentration, and otherwise, they have an antagonistic effect.

[10] = test system: adult Bemisia tabaci (Gennadius); assay: Joint toxicity of I-72 + emamectin benzoate, seedling spraying, Example 12, Table 12; conditions: adults, kidney bean seedling spraying, 72 h; A = compound I-72, B = emamectin benzoate
Text: Test subject: adult Bemisia tabaci (Gennadius), a sensitive strain reared indoors.
Experimental method: the spraying method was adopted. The kidney bean seedlings cultivated in the greenhouse were selected and evenly sprayed with the pesticide solution in the order from low dosage to high dosage according to the experimental design. After natural air-drying in the shade, a self-made glass cover was put on, and the test insects were introduced, with 20-30 insects for each treatment and 3 replicates. In addition, a blank control was set up. The number of dead and live insects was investigated 72 hours later. The corrected mortality rate was calculated using the Abbott's formula, and the DPS data processing software was used for statistical analysis to calculate the toxicities (LC50 values) of the single test pesticides and the mixtures under the test ratios.
as §11

[11] = test system: 2nd-instar larvae of Chilo suppressalis (Walker); assay: whole plant or invertebrate; conditions: resistant 2nd-instar larvae, rice stalk spraying, 72 h; A = compound I-72, B = spinetoram
Description: In addition, a blank control was set up. The number of dead and live insects was investigated 72 hours later.

[12] = test system: 2nd-instar nymphs of Frankliniella occidentalis Pergande; assay: Joint toxicity of I-72 + spinetoram, leaf spraying, Example 11, Table 11; conditions: kidney bean leaf spraying, 48 h, A = compound I-72, B = spinetoram
Text: Test subject: 2nd-instar nymphs of Frankliniella occidentalis Pergande, a sensitive strain reared indoors.
Experimental method: the spraying method was adopted. The kidney bean leaves cultivated in the greenhouse were selected, and the petioles were wrapped with moist degreased cotton and sealing film. They were evenly sprayed with the pesticide solution in the order from low dosage to high dosage according to the experimental design, placed in a 6-cm-diameter Petri dish with filter paper. After natural air-drying in the shade, the test insects were introduced, with 20 insects for each treatment and 3 replicates. In addition, a blank control was set up. The number of dead and live insects was investigated 48 hours later. The corrected mortality rate was calculated using the Abbott's formula, and the DPS data processing software was used for statistical analysis to calculate the toxicities (LC50 values) of the single test pesticides and the mixtures under the test ratios.
as §11

[13] = test system: 3rd-instar larvae of Spodoptera frugiperda; assay: Joint toxicity of I-72 + spinosad, corn leaf dipping, Example 10, Table 10; conditions: 72 h, A = compound I-72, B = spinosad
Text: as §7, §8, §11

N#Cc1ccc(CC(=NNC(=O)Nc2ccc(OC(F)(F)F)cc2)c2cccc(C(F)(F)F)c2)cc1 (mixture of isomers) [metaflumizone, reference compound]
LC50 [1]: 12.8933 µg/mL
LC50 [2]: 1.0724 µg/mL

COP(=O)(NC(C)=O)SC (stereo not shown) [acephate]
LC50 [3]: 34.9 µg/mL
LC50 [4]: 11.1 µg/mL
LC50 [5]: 15.5 µg/mL
LC50 (adult Phyllotreta spp.): 61.6 µg/mL

COC(=O)N(C(=O)N1CO[C@@]2(C(=O)OC)Cc3cc(Cl)ccc3C2=N1)c1ccc(OC(F)(F)F)cc1 [indoxacarb, reference compound]
LC50 [6]: 2.2438 µg/mL
LC50 [7]: 0.8555 µg/mL

emamectin benzoate
LC50 [8]: 0.0878 µg/mL
Mortality rate (%) ([9]; single agent 0.05 mg/L): 41.67%
Mortality rate (%) ([9]; single agent 0.1 mg/L): 50.00%
Mortality rate (%) ([9]; single agent 0.2 mg/L): 79.17%
Mortality rate (%) ([9]; single agent 0.5 mg/L): 87.50%
LC50 [10]: 1.1995 µg/mL

spinetoram
LC50 [11]: 9.4220 µg/mL
LC50 [12]: 0.7822 µg/mL
Mortality rate (%) ([9]; single agent 0.1 mg/L): 8.33%
Mortality rate (%) ([9]; single agent 1 mg/L): 56.25%
Mortality rate (%) ([9]; single agent 2 mg/L): 70.83%
Mortality rate (%) ([9]; single agent 5 mg/L): 81.25%

spinosad
LC50 [13]: 1.1242 µg/mL
Mortality rate (%) ([9]; single agent 0.1 mg/L): 4.17%
Mortality rate (%) ([9]; single agent 1 mg/L): 52.08%
Mortality rate (%) ([9]; single agent 2 mg/L): 68.75%
Mortality rate (%) ([9]; single agent 5 mg/L): 79.17%
